Reference: ChEMBL document CHEMBL1153781, “Prediction of volume of distribution values in human using immobilized artificial membrane partitioning coefficients, the fraction of compound ionized and plasma protein binding data” (Eur J Med Chem, 2009)

What was measured:
clinical = conditions: human, in vivo
Plasma = conditions: human
[1] = Dissociation constant, pKa of the compound; type: physicochemical

Row | SMILES | Vd (clinical) | fu (Plasma) | pKa [1]
1 | CC(=O)[C@@]1(O)CC[C@H]2[C@@H]3C[C@H](C)C4=CC(=O)CC[C@]4(C)[C@H]3CC[C@@]21C | 4.66 L/kg | 0.1 | –
2 | CCOC(=O)[C@H](CCc1ccccc1)N[C@@H](C)C(=O)N1CCC[C@H]1C(=O)O | 1.7 L/kg | 0.4 | –
3 | CC(=O)Nc1ccc(O)cc1 [ACETAMINOPHEN] | – | 1 | –
4 | Nc1ncnc2c1ncn2CCOCP(=O)(O)O [ADEFOVIR] | – | 0.895 | 1.3
5 | CC(C)(C)NCC(O)c1ccc(O)c(CO)c1 (stereo not drawn) [ALBUTEROL] | – | 0.93 | –
6 | CN(C)CCC=C1c2ccccc2CCc2ccccc21 [AMITRIPTYLINE] | – | 0.06 | –
7 | CCC1(CCC(C)C)C(=O)NC(=O)NC1=O [AMOBARBITAL] | 1.05 L/kg | – | –
8 | CC1(C)S[C@@H]2[C@H](NC(=O)[C@H](N)c3ccc(O)cc3)C(=O)N2[C@H]1C(=O)O [AMOXICILLIN] | 0.85 L/kg | 0.82 | 2.4
9 | Cc1cc(=O)n(-c2ccccc2)n1C [ANTIPYRINE] | – | 0.87 | –
10 | CN1CCc2cccc3c2[C@H]1Cc1ccc(O)c(O)c1-3 [APOMORPHINE] | 2 L/kg | 0.5 | –
11 | CC(=O)Oc1ccccc1C(=O)O [ASPIRIN] | 0.15 L/kg | 0.3 | –
12 | CC(C)NCC(O)COc1ccc(CC(N)=O)cc1 (stereo not drawn) [ATENOLOL] | – | 0.91 | –
13 | C[C@H]1[C@H](NC(=O)/C(=N\OC(C)(C)C(=O)O)c2csc(N)n2)C(=O)N1S(=O)(=O)O [AZTREONAM] | – | – | 2.75
14 | CCCCN1CCCCC1C(=O)Nc1c(C)cccc1C (stereo not drawn) [BUPIVACAINE] | 0.7 L/kg | 0.044 | 8.16
15 | NC(=O)N1c2ccccc2C=Cc2ccccc21 [CARBAMAZEPINE] | 1.4 L/kg | 0.25 | –
16 | Cc1nnc(SCC2=C(C(=O)O)N3C(=O)[C@@H](NC(=O)Cn4cnnn4)[C@H]3SC2)s1 [CEFAZOLIN] | – | – | 2.1
17 | C=CC1=C(C(=O)O)N2C(=O)[C@@H](NC(=O)/C(=N\OCC(=O)O)c3csc(N)n3)[C@H]2SC1 [CEFIXIME] | – | 0.33 | 2.1
18 | CCN1CCN(C(=O)N[C@@H](C(=O)N[C@@H]2C(=O)N3C(C(=O)O)=C(CSc4nnnn4C)CS[C@H]23)c2ccc(O)cc2)C(=O)C1=O [CEFOPERAZONE] | – | – | 2.6
19 | CO/N=C(\C(=O)N[C@@H]1C(=O)N2C(C(=O)O)=C(COC(C)=O)CS[C@H]12)c1csc(N)n1 [CEFOTAXIME] | 0.28 L/kg | 0.6 | 3.75
20 | CO/N=C(\C(=O)N[C@@H]1C(=O)N2C(C(=O)O)=C(CSc3nc(=O)c(=O)[nH]n3C)CS[C@H]12)c1csc(N)n1 [CEFTRIAXONE] | – | 0.075 | 2.7
21 | O=C(O)CCCc1ccc(N(CCCl)CCCl)cc1 [CHLORAMBUCIL] | 0.29 L/kg | – | –
22 | O=C(N[C@H](CO)[C@H](O)c1ccc([N+](=O)[O-])cc1)C(Cl)Cl [CHLORAMPHENICOL] | – | 0.47 | –
23 | CN(C)CCC(c1ccc(Cl)cc1)c1ccccn1 (stereo not drawn) [CHLORPHENIRAMINE] | – | 0.3 | –
24 | CN/C(=N/CCSCc1nc[nH]c1C)NC#N [CIMETIDINE] | – | 0.81 | –
25 | Clc1cccc(Cl)c1N=C1NCCN1 [CLONIDINE] | – | 0.8 | –
26 | COc1ccc2c3c1O[C@H]1[C@@H](O)C=C[C@H]4[C@@H](C2)N(C)CC[C@@]341 [CODEINE] | – | 0.93 | –

Row | SMILES | Vd (clinical) | fu (Plasma) | pKa [1]
27 | CN1C(=O)CN=C(c2ccccc2)c2cc(Cl)ccc21 [DIAZEPAM] | – | 0.02 | –
28 | O=C(O)Cc1ccccc1Nc1c(Cl)cccc1Cl [DICLOFENAC] | – | 0.01 | –
29 | C[C@H]1O[C@@H](O[C@H]2[C@@H](O)C[C@H](O[C@H]3[C@@H](O)C[C@H](O[C@H]4CC[C@@]5(C)[C@H](CC[C@@H]6[C@@H]5C[C@@H](O)[C@]5(C)[C@@H](C7=CC(=O)OC7)CC[C@]65O)C4)O[C@@H]3C)O[C@@H]2C)C[C@H](O)[C@@H]1O [DIGOXIN] | 3.12 L/kg | – | –
30 | CN(C)CCC=C1c2ccccc2COc2ccccc21 [DOXEPIN] | 11.7 L/kg | 0.17 | –
31 | Cn1c(=O)c2c(ncn2CC(O)CO)n(C)c1=O (stereo not drawn) [DYPHYLLINE] | 0.8 L/kg | 0.6 | –
32 | C[C@]12CC[C@@H]3c4ccc(O)cc4CC[C@H]3[C@@H]1CC[C@@H]2O [ESTRADIOL] | – | 0.015 | –
33 | NC(N)=Nc1nc(CSCCC(N)=NS(N)(=O)=O)cs1 [FAMOTIDINE] | – | 0.83 | –
34 | CC(C(=O)O)c1ccc(-c2ccccc2)c(F)c1 (stereo not drawn) [FLURBIPROFEN] | 0.12 L/kg | 0.01 | –
35 | NS(=O)(=O)c1cc(C(=O)O)c(NCc2ccco2)cc1Cl [FUROSEMIDE] | – | 0.03 | –
36 | COc1c(N2CCNC(C)C2)c(F)cc2c(=O)c(C(=O)O)cn(C3CC3)c12 (stereo not drawn) [GATIFLOXACIN] | 1.75 L/kg | – | 6
37 | COc1ccc(Cl)cc1C(=O)NCCc1ccc(S(=O)(=O)NC(=O)NC2CCCCC2)cc1 [GLYBURIDE] | 0.14 L/kg | 0.01 | –
38 | COC1=CC(=O)C[C@@H](C)[C@]12Oc1c(Cl)c(OC)cc(OC)c1C2=O [GRISEOFULVIN] | 1.5 L/kg | 0.16 | –
39 | NS(=O)(=O)c1cc2c(cc1Cl)NCNS2(=O)=O [HYDROCHLOROTHIAZIDE] | 0.83 L/kg | 0.6 | –
40 | C[C@]12CCC(=O)C=C1CC[C@@H]1[C@@H]2[C@@H](O)C[C@@]2(C)[C@H]1CC[C@]2(O)C(=O)CO [HYDROCORTISONE] | – | 0.09 | –
41 | COc1ccc2c(c1)c(CC(=O)O)c(C)n2C(=O)c1ccc(Cl)cc1 [INDOMETHACIN] | 0.1 L/kg | 0.1 | –
42 | NNC(=O)c1ccncc1 [ISONIAZID] | 0.67 L/kg | 1 | –
43 | CC(C(=O)O)c1cccc(C(=O)c2ccccc2)c1 (stereo not drawn) [KETOPROFEN] | 0.15 L/kg | – | –
44 | Cc1c(OCC(F)(F)F)ccnc1C[S+]([O-])c1nc2ccccc2[nH]1 (stereo not drawn) [LANSOPRAZOLE] | 0.35 L/kg | 0.03 | –
45 | C[C@H]1COc2c(N3CCN(C)CC3)c(F)cc3c(=O)c(C(=O)O)cn1c23.C[C@H]1COc2c(N3CCN(C)CC3)c(F)cc3c(=O)c(C(=O)O)cn1c23.O [LEVOFLOXACIN] | 1.36 L/kg | 0.69 | –
46 | CCC[C@@H]1C[C@@H](C(=O)N[C@@H]([C@H]2O[C@H](SC)[C@H](O)[C@@H](O)[C@H]2O)[C@@H](C)O)N(C)C1 [LINCOMYCIN] | 1.3 L/kg | 0.28 | –
47 | Cc1cnc(NC(=O)C2=C(O)c3ccccc3S(=O)(=O)N2C)s1 [MELOXICAM] | – | 0.006 | –
48 | CCOC(=O)C1(c2ccccc2)CCN(C)CC1 [MEPERIDINE] | – | 0.42 | 10.5
49 | CN(C)C(=N)N=C(N)N [METFORMIN] | 2.45 L/kg | – | –
50 | Cc1ccccc1N1C(=O)c2cc(S(N)(=O)=O)c(Cl)cc2NC1C (stereo not drawn) [METOLAZONE] | 1.61 L/kg | – | 9.72
51 | CN1CC[C@]23c4c5ccc(O)c4O[C@H]2[C@@H](O)C=C[C@H]3[C@H]1C5 [MORPHINE] | – | 0.61 | –
52 | COc1ccc2cc([C@H](C)C(=O)O)ccc2c1 [NAPROXEN] | – | 0.01 | –

Row | SMILES | Vd (clinical) | fu (Plasma) | pKa [1]
53 | COC(=O)C1=C(C)NC(C)=C(C(=O)OCCN(C)Cc2ccccc2)C1c1cccc([N+](=O)[O-])c1 (stereo not drawn) [NICARDIPINE] | 0.98 L/kg | 0.05 | –
54 | COCCOC(=O)C1=C(C)NC(C)=C(C(=O)OC(C)C)C1c1cccc([N+](=O)[O-])c1 (stereo not drawn) [NIMODIPINE] | 1.5 L/kg | 0.05 | –
55 | CC1(C)S[C@@H]2[C@H](NC(=O)Cc3ccccc3)C(=O)N2[C@H]1C(=O)O [PENICILLIN G] | – | 0.425 | –
56 | CCC1(c2ccccc2)C(=O)NC(=O)NC1=O [PHENOBARBITAL] | 0.63 L/kg | 0.5 | –
57 | O=C1NC(=O)C(c2ccccc2)(c2ccccc2)N1 [PHENYTOIN] | 0.64 L/kg | 0.1 | –
58 | CN1C(C(=O)Nc2ccccn2)=C(O)c2ccccc2S1(=O)=O [PIROXICAM] | 0.14 L/kg | 0.01 | –
59 | CC[C@H](C)C(=O)O[C@H]1C[C@H](O)C=C2C=C[C@H](C)[C@H](CC[C@@H](O)C[C@@H](O)CC(=O)O)[C@H]21 [PRAVASTATIN] | – | 0.55 | 4.7
60 | C[C@]12C=CC(=O)C=C1CC[C@@H]1[C@@H]2[C@@H](O)C[C@@]2(C)[C@H]1CC[C@]2(O)C(=O)CO [PREDNISOLONE] | – | 0.075 | –
61 | C[C@]12C=CC(=O)C=C1CC[C@@H]1[C@@H]2C(=O)C[C@@]2(C)[C@H]1CC[C@]2(O)C(=O)CO [PREDNISONE] | – | 0.25 | –
62 | CCCNC(C)C(=O)Nc1ccccc1C (stereo not drawn) [PRILOCAINE] | – | 0.715 | 7.9
63 | CC(CN1c2ccccc2Sc2ccccc21)N(C)C (stereo not drawn) [PROMETHAZINE] | – | 0.07 | –
64 | CCCNCC(O)COc1ccccc1C(=O)CCc1ccccc1 (stereo not drawn) [PROPAFENONE] | – | 0.05 | –
65 | CC(C)NCC(O)COc1cccc2ccccc12 (stereo not drawn) [PROPRANOLOL] | – | 0.1 | –
66 | CN[C@@H](C)[C@@H](O)c1ccccc1 [PSEUDOEPHEDRINE] | 2.84 L/kg | 1 | –
67 | NC(=O)c1cnccn1 [PYRAZINAMIDE] | 0.7 L/kg | 0.9 | –
68 | CCCN1CCCC[C@H]1C(=O)Nc1c(C)cccc1C [ROPIVACAINE] | 0.55 L/kg | 0.06 | –
69 | O=C(O)c1ccccc1O [SALICYLIC ACID] | 0.17 L/kg | 0.05 | –
70 | CCC(C)(C)C(=O)O[C@H]1C[C@@H](C)C=C2C=C[C@H](C)[C@H](CC[C@@H]3C[C@@H](O)CC(=O)O3)[C@H]21 [SIMVASTATIN] | 0.98 L/kg | – | –
71 | Nc1ccc(S(=O)(=O)Nc2ncccn2)cc1 [SULFADIAZINE] | 0.92 L/kg | 0.55 | –
72 | CCN1CCCC1CNC(=O)c1cc(S(N)(=O)=O)ccc1OC (stereo not drawn) [SULPIRIDE] | 2.5 L/kg | 0.6 | –
73 | CCS(=O)(=O)CCn1c([N+](=O)[O-])cnc1C [TINIDAZOLE] | 0.7 L/kg | 0.88 | –
74 | CCCCNC(=O)NS(=O)(=O)c1ccc(C)cc1 [TOLBUTAMIDE] | 0.14 L/kg | – | –
75 | COc1cccc(C2(O)CCCCC2CN(C)C)c1 (stereo not drawn) [TRAMADOL] | – | 0.96 | 8.3
76 | C[C@]12C=CC(=O)C=C1CC[C@H]1[C@@H]3C[C@@H](O)[C@](O)(C(=O)CO)[C@@]3(C)C[C@H](O)[C@@]12F [TRIAMCINOLONE] | 1.76 L/kg | 0.32 | –
77 | COc1cc(Cc2cnc(N)nc2N)cc(OC)c1OC [TRIMETHOPRIM] | – | 0.63 | –
78 | CC(=O)CC(c1ccccc1)c1c(O)c2ccccc2oc1=O (stereo not drawn) [WARFARIN] | 0.14 L/kg | 0.01 | –
